Experimental data as given in PMC8286599 (Gut Pathogens, 2021).
Like-named read-outs stand apart in the source and are kept apart here.

What was measured:
[1] = Haemolytic assay; type: cell-based; details: read-out: Haemolysis; for hemolysis at 0.5 X MIC: 0.50X MIC
Procedure: The haemolytic assay of the individual phytochemical was performed by measuring the release of haemoglobin from sheep and human ‘O’ erythrocytes at 540 nm. The percentage of haemolysis was calculated as (Asample – APBS)/ (ATriton−X – APBS) ×100, in which Asample is the absorbance of phytochemical treatment, APBS is the absorbance of untreated control with PBS, and ATriton−X is the absorbance of lysed cells treated with Triton X-100 measured at 540 nm.

[2] = tested on: MDR-EAEC strains; test: Stability assay, pH (MIC)
From the text: (§4) To explore the utility of phytochemicals as therapeutic molecules and their stability, individual phytochemicals were exposed to cationic salts, and different pH levels followed by analysing their MIC and MBC values against test strains as described earlier.
(§5) Subsequent to exposure to varied conditions, the antimicrobial activity of the phytochemicals was estimated by determining their MIC and MBC values against all the selected MDR strains of EAEC, S. Enteritidis, and S. Typhimurium as described earlier.

[3] = tested on: MDR-S. Enteritidis strains; test: MIC and MBC by broth microdilution with resazurin; type: cell-based, Salmonella Enteritidis; details: poultry droppings isolate
From the text: (§1) The characterised MDR field strains of EAEC (E1; E2; E3), S. Enteritidis (S1; S2; S3), and S. Typhimurium (ST1; ST2; ST3) maintained in the laboratory repository of Meat Safety Laboratory of ICAR-National Research Centre on Meat, Hyderabad re-validated using PCR assays were used to evaluate the in vitro antibacterial efficacy of phytochemicals. E. coli ATCC 25922 was used as the quality control strain.
(§2) The antimicrobial efficacy of identified phytochemicals against multi-drug resistant EAEC and NTS strains was determined by estimating the minimum inhibitory concentration (MIC) and minimum bactericidal concentrations (MBC).
(§3) Subsequent to the incubation period, resazurin dye (0.015 %) was added to all the wells to determine the dye reduction (pink) and thereby the bacterial inhibition.

[4] = tested on: MDR-S. Typhimurium strains; test: MIC and MBC by broth microdilution with resazurin; type: cell-based, Salmonella Typhimurium; details: poultry droppings isolate
From the text: as §1, §2, §3

[5] = tested on: MDR-S. Typhimurium strains; test: Stability assay, cationic salts (MIC)
From the text: as §4, §5

[6] = tested on: MDR-S. Enteritidis strains; test: Stability assay, cationic salts (MIC)
From the text: as §4, §5

[7] = tested on: MDR-S. Enteritidis strains; test: Stability assay, pH (MIC)
From the text: as §4, §5

[8] = tested on: MDR-EAEC strains; test: MIC and MBC by broth microdilution with resazurin; type: cell-based, enteroaggregative Escherichia coli; details: infant diarrhoea isolate
From the text: as §1, §2, §3

[9] = tested on: MDR-EAEC strains; test: Stability assay, cationic salts (MIC)
From the text: as §4, §5

[10] = tested on: MDR-S. Typhimurium strains; test: Stability assay, pH (MIC)
From the text: as §4, §5

[11] = human 'O' erythrocytes, Human RBCs

O=C/C=C/c1ccccc1 [Cinnamaldehyde, cinnamaldehyde]
0.554%: hemolysis at 0.25 X MIC [1, 11]
3.61%: hemolysis at 1 X MIC ([1]; sheep erythrocytes, Sheep RBCs)
0.696%: hemolysis at 0.5 X MIC [1, 11]
0.109%: hemolysis at 0.25 X MIC ([1]; sheep erythrocytes, Sheep RBCs)
0.12 µl/ml: MIC ([3]; S. Enteritidis (S1)) | MIC ([3]; S. Enteritidis (S2)) | MIC ([3]; S. Enteritidis (S3)) | MIC ([4]; S. Typhimurium (ST3))
11.7%: hemolysis at 2 X MIC ([1]; sheep erythrocytes, Sheep RBCs)
2.03%: hemolysis at 1 X MIC [1, 11]
12.8%: hemolysis at 4 X MIC [1, 11]
12.5%: hemolysis at 4 X MIC ([1]; sheep erythrocytes, Sheep RBCs)
remained almost similar: Change of MIC values with cationic salts ([9]; 150 mM NaCl and 2 mM MgCl2, MDR-EAEC strains)
0.25 µl/ml: MIC ([4]; S. Typhimurium (ST1)) | MIC ([4]; S. Typhimurium (ST2)) | MIC ([8]; EAEC (E3))
5%: hemolysis at 2 X MIC [1, 11]
19.1%: hemolysis at 8 X MIC [1, 11]
0.274%: hemolysis at 0.5 X MIC ([1]; sheep erythrocytes, Sheep RBCs)
0.5 µl/ml: MIC at given pH ([2]; pH 4, strain E1) | MIC at given pH ([2]; pH 4, strain E2) | MIC at given pH ([2]; pH 4, strain E3) | MIC at given pH ([2]; pH 6, strain E1) | MIC at given pH ([2]; pH 6, strain E2) | MIC at given pH ([2]; pH 6, strain E3) | MIC at given pH ([2]; pH 8, strain E1) | MIC at given pH ([2]; pH 8, strain E2) | MIC at given pH ([2]; pH 8, strain E3) | MIC with cationic salt ([5]; 2 mM MgCl2, strain ST1) | MIC with cationic salt ([5]; 2 mM MgCl2, strain ST2) | MIC with cationic salt ([5]; 150 mM NaCl, strain ST1) | MIC with cationic salt ([5]; 150 mM NaCl, strain ST2) | MIC with cationic salt ([6]; 2 mM MgCl2, strain S1) | MIC with cationic salt ([6]; 2 mM MgCl2, strain S2) | MIC with cationic salt ([6]; 2 mM MgCl2, strain S3) | MIC with cationic salt ([6]; 150 mM NaCl, strain S1) | MIC with cationic salt ([6]; 150 mM NaCl, strain S2) | MIC with cationic salt ([6]; 150 mM NaCl, strain S3) | MIC at given pH ([7]; pH 4, strain S1) | MIC at given pH ([7]; pH 4, strain S2) | MIC at given pH ([7]; pH 4, strain S3) | MIC at given pH ([7]; pH 6, strain S1) | MIC at given pH ([7]; pH 6, strain S2) | MIC at given pH ([7]; pH 6, strain S3) | MIC at given pH ([7]; pH 8, strain S1) | MIC at given pH ([7]; pH 8, strain S2) | MIC with cationic salt ([9]; 2 mM MgCl2, strain E1) | MIC with cationic salt ([9]; 2 mM MgCl2, strain E2) | MIC with cationic salt ([9]; 2 mM MgCl2, strain E3) | MIC with cationic salt ([9]; 150 mM NaCl, strain E1) | MIC with cationic salt ([9]; 150 mM NaCl, strain E2) | MIC with cationic salt ([9]; 150 mM NaCl, strain E3) | MIC at given pH ([10]; pH 4, strain ST1) | MIC at given pH ([10]; pH 6, strain ST1) | MIC at given pH ([10]; pH 8, strain ST1)
22%: hemolysis at 8 X MIC ([1]; sheep erythrocytes, Sheep RBCs)
1.0 µl/ml: MBC ([4]; S. Typhimurium (ST3)) | MIC with cationic salt ([5]; 2 mM MgCl2, strain ST3) | MIC with cationic salt ([5]; 150 mM NaCl, strain ST3) | MIC at given pH ([7]; pH 8, strain S3) | MBC ([8]; EAEC (E2)) | MIC at given pH ([10]; pH 4, strain ST2) | MIC at given pH ([10]; pH 4, strain ST3) | MIC at given pH ([10]; pH 6, strain ST2) | MIC at given pH ([10]; pH 6, strain ST3) | MIC at given pH ([10]; pH 8, strain ST2) | MIC at given pH ([10]; pH 8, strain ST3)
0.50 µl/ml: MBC ([3]; S. Enteritidis (S1)) | MBC ([3]; S. Enteritidis (S2)) | MBC ([3]; S. Enteritidis (S3)) | MBC ([4]; S. Typhimurium (ST1)) | MBC ([4]; S. Typhimurium (ST2)) | MBC ([8]; EAEC (E1)) | MIC ([8]; EAEC (E1)) | MIC ([8]; EAEC (E2)) | MBC ([8]; EAEC (E3))
